Experimental data reported in PubChem BioAssay AID328 (DTP/NCI, 2004).
Values joined by “and” are separate entries in the source; they are usually repeats but may differ in a detail not shown here. Identical values can stand only once. Inconclusive results and toxic doses are left out. Rule for the calls: active = survival T/C of 150% or more; inactive = T/C below 125% in these data.

Test system: BDF1 mice, P388 leukemia ip, median survival T/C
Experiment: NCI In Vivo Anticancer Drug Screen. Data for tumor model P388 Leukemia (intraperitoneal) in B6D2F1 (BDF1) mice
Details: endpoint: median survival time, higher = longer survival
Method in brief: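 Vehicle-dosed animals serve as the reference; survival of compound-dosed, tumour-implanted mice is divided by it.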

[1] = dose: 50.0 mg/kg/injection, schedule: Q01DX009 (ip), vehicle: saline with Tween-80
[2] = dose: 100.0 mg/kg/injection, schedule: Q01DX009 (ip), vehicle: saline with Tween-80
[3] = dose: 200.0 mg/kg/injection, schedule: Q01DX009 (ip), vehicle: saline with Tween-80
[4] = dose: 50.0 mg/kg/injection, schedule: Q04DX003 (ip), vehicle: saline with Tween-80
[5] = dose: 100.0 mg/kg/injection, schedule: Q04DX003 (ip), vehicle: saline with Tween-80
[6] = dose: 200.0 mg/kg/injection, schedule: Q04DX003 (ip), vehicle: saline with Tween-80
[7] = dose: 100.0 mg/kg/injection, schedule: Q01DX009 (ip), vehicle: Klucel (hydroxypropylcellulose) (HPC)
[8] = dose: 200.0 mg/kg/injection, schedule: Q01DX009 (ip), vehicle: Klucel (hydroxypropylcellulose) (HPC)

Measured: T/C

CCOC(=O)c1c[nH]c2nc(SC)nc(NC(C)=O)c2c1=O
inactive: [1] 102 % of control | [2] 87 % of control | [3] 89 % of control

S=C(N/N=C/c1ccc(-c2ccccc2)cc1)Nc1ccccc1
inactive: [1] 91 % of control | [4] 95 % of control | [2] 91 % of control | [5] 91 % of control | [3] 91 % of control | [6] 91 % of control

CCCC(O)(CCC)CC1=NC(C)(C)CO1
inactive: dose: 75.0 mg/kg/injection, schedule: Q04DX003 (ip), vehicle: saline sonified 110 % of control | dose: 150.0 mg/kg/injection, schedule: Q04DX003 (ip), vehicle: saline sonified 105 % of control | dose: 300.0 mg/kg/injection, schedule: Q04DX003 (ip), vehicle: saline sonified 100 % of control

Cc1ccc(NC(=O)N(CCCCl)N=O)cc1
inactive: dose: 25.0 mg/kg/injection, schedule: Q01DX009 (ip), vehicle: Klucel (hydroxypropylcellulose) (HPC) 105 % of control | dose: 50.0 mg/kg/injection, schedule: Q01DX009 (ip), vehicle: Klucel (hydroxypropylcellulose) (HPC) 119 % of control | [7] 111 % of control | [8] 95 % of control

Cn1ccn(C2CCCCC2)c1=O
inactive: dose: 25.0 mg/kg/injection, schedule: Q04DX003 (ip), vehicle: saline with Tween-80 95 % of control | [4] 100 % of control

O=C(Nc1[nH]nc2nccnc12)C(F)(F)F
inactive: [5] 109 % of control | [6] 104 % of control | dose: 400.0 mg/kg/injection, schedule: Q04DX003 (ip), vehicle: saline with Tween-80 118 % of control

CCCCCCCCCCCCCC(=O)O[C@@H]1[C@@H](C)[C@@]2(O)[C@@H](C=C(CO)C[C@]3(OC)C(=O)C(C)=C[C@@H]23)[C@@H]2C(C)(C)[C@]12OC(C)=O
active: dose: 12.5 micrograms/kg/injection, schedule: Q01DX009 (ip), vehicle: saline with Tween-80 160 % of control | dose: 400.0 micrograms/kg/injection, schedule: Q01DX009 (ip), vehicle: gum acacia 160 % of control | dose: 800.0 micrograms/kg/injection, schedule: Q01DX009 (ip), vehicle: saline with Tween-80 169 % of control
inactive: dose: 0.03 mg/kg/injection, schedule: Q01DX009 (ip), vehicle: saline + alcohol 91 % of control | dose: 0.06 mg/kg/injection, schedule: Q01DX009 (ip), vehicle: Klucel (hydroxypropylcellulose) (HPC) 91 % of control | dose: 0.06 mg/kg/injection, schedule: Q01DX009 (ip), vehicle: saline + alcohol 94 % of control | dose: 0.12 mg/kg/injection, schedule: Q01DX009 (ip), vehicle: Klucel (hydroxypropylcellulose) (HPC) 94 % of control | dose: 0.12 mg/kg/injection, schedule: Q01DX009 (ip), vehicle: saline + alcohol 117 % of control | dose: 0.25 mg/kg/injection, schedule: Q01DX009 (ip), vehicle: Klucel (hydroxypropylcellulose) (HPC) 94 % of control | dose: 0.25 mg/kg/injection, schedule: Q01DX009 (ip), vehicle: saline + alcohol 94 % of control | dose: 0.5 mg/kg/injection, schedule: Q01DX009 (ip), vehicle: Klucel (hydroxypropylcellulose) (HPC) 110 % of control | dose: 0.5 mg/kg/injection, schedule: Q01DX009 (ip), vehicle: saline + alcohol 107 % of control | dose: 1.0 mg/kg/injection, schedule: Q01DX009 (ip), vehicle: Klucel (hydroxypropylcellulose) (HPC) 94 % of control | dose: 1.0 mg/kg/injection, schedule: Q01DX009 (ip), vehicle: saline + alcohol 100 % of control | dose: 3.1 micrograms/kg/injection, schedule: Q01DX009 (ip), vehicle: gum acacia 106 % of control | dose: 3.1 micrograms/kg/injection, schedule: Q01DX009 (ip), vehicle: saline + alcohol 94 % of control | dose: 3.1 micrograms/kg/injection, schedule: Q01DX009 (ip), vehicle: saline with Tween-80 87 % of control | dose: 6.2 micrograms/kg/injection, schedule: Q01DX009 (ip), vehicle: gum acacia 97 % of control | dose: 6.2 micrograms/kg/injection, schedule: Q01DX009 (ip), vehicle: saline + alcohol 87 % of control | dose: 6.2 micrograms/kg/injection, schedule: Q01DX009 (ip), vehicle: saline with Tween-80 97 % of control | dose: 12.5 micrograms/kg/injection, schedule: Q01DX009 (ip), vehicle: gum acacia 87 % of control | dose: 12.5 micrograms/kg/injection, schedule: Q01DX009 (ip), vehicle: saline + alcohol 94 % of control | dose: 25.0 micrograms/kg/injection, schedule: Q01DX009 (ip), vehicle: saline + alcohol 103 % of control | dose: 25.0 micrograms/kg/injection, schedule: Q01DX009 (ip), vehicle: saline with Tween-80 103 % of control | dose: 50.0 micrograms/kg/injection, schedule: Q01DX009 (ip), vehicle: gum acacia 122 % of control | dose: 50.0 micrograms/kg/injection, schedule: Q01DX009 (ip), vehicle: saline + alcohol 101 % of control | dose: 50.0 micrograms/kg/injection, schedule: Q01DX009 (ip), vehicle: saline with Tween-80 87 % of control | dose: 100.0 micrograms/kg/injection, schedule: Q01DX009 (ip), vehicle: gum acacia 106 % of control | dose: 100.0 micrograms/kg/injection, schedule: Q01DX009 (ip), vehicle: saline + alcohol 97 % of control | dose: 100.0 micrograms/kg/injection, schedule: Q01DX009 (ip), vehicle: saline with Tween-80 122 % of control | dose: 200.0 micrograms/kg/injection, schedule: Q01DX009 (ip), vehicle: gum acacia 113 % of control | dose: 200.0 micrograms/kg/injection, schedule: Q01DX009 (ip), vehicle: saline + alcohol 97 % of control | dose: 200.0 micrograms/kg/injection, schedule: Q01DX009 (ip), vehicle: saline with Tween-80 106 % of control | dose: 400.0 micrograms/kg/injection, schedule: Q01DX009 (ip), vehicle: saline + alcohol 94 % of control | dose: 400.0 micrograms/kg/injection, schedule: Q01DX009 (ip), vehicle: saline with Tween-80 94 % of control | dose: 800.0 micrograms/kg/injection, schedule: Q01DX009 (ip), vehicle: gum acacia 94 % of control | dose: 800.0 micrograms/kg/injection, schedule: Q01DX009 (ip), vehicle: saline + alcohol 106 % of control

CN(C)c1ccc(/C=C/c2ccnc3c(-c4ccccc4)cccc23)cc1
inactive: [1] 89 % of control | [2] 91 % of control

Oc1cccc2c1[O][Sb][O]2
inactive: dose: 3.0 mg/kg/injection, schedule: Q01DX009 (ip), vehicle: saline with Tween-80 102 % of control | dose: 6.0 mg/kg/injection, schedule: Q01DX009 (ip), vehicle: saline with Tween-80 110 % of control | dose: 11.0 mg/kg/injection, schedule: Q04DX003 (ip), vehicle: saline with Tween-80 112 % of control | dose: 16.5 mg/kg/injection, schedule: Q04DX003 (ip), vehicle: saline with Tween-80 112 % of control | dose: 25.0 mg/kg/injection, schedule: Q01DX009 (ip), vehicle: saline with Tween-80 110 % of control

O=C1NC(=O)C(c2cccs2)(c2cccs2)N1
inactive: dose: 25.0 mg/kg/injection, schedule: Q01DX009 (ip), vehicle: water 115 % of control | dose: 100.0 mg/kg/injection, schedule: Q01DX009 (ip), vehicle: water 111 % of control | dose: 100.0 mg/kg/injection, schedule: Q04DX003 (ip), vehicle: water 99 % of control | dose: 200.0 mg/kg/injection, schedule: Q04DX003 (ip), vehicle: water 98 % of control

C[C@@H]1C[C@@]2(C)C(=CC1=O)CC[C@@H]1C2=CC[C@@]2(C)[C@H]1CC[C@]2(C)O
inactive: [7] 100 % of control and 110 % of control | dose: 100.0 mg/kg/injection, schedule: Q04DX003 (ip), vehicle: alcohol 100 % of control | [8] 90 % of control and 100 % of control | dose: 200.0 mg/kg/injection, schedule: Q04DX003 (ip), vehicle: alcohol 105 % of control | dose: 400.0 mg/kg/injection, schedule: Q01DX009 (ip), vehicle: Klucel (hydroxypropylcellulose) (HPC) 90 % of control and 113 % of control | dose: 400.0 mg/kg/injection, schedule: Q04DX003 (ip), vehicle: alcohol 95 % of control

CCOC(=O)CNCc1cccc(Br)c1
inactive: dose: 50.0 mg/kg/injection, schedule: Q01DX005 (ip), vehicle: saline 104 % of control | dose: 100.0 mg/kg/injection, schedule: Q01DX005 (ip), vehicle: saline 106 % of control | dose: 200.0 mg/kg/injection, schedule: Q01DX005 (ip), vehicle: saline 98 % of control | dose: 400.0 mg/kg/injection, schedule: Q01DX005 (ip), vehicle: saline 104 % of control

COC1(OC)C2(Cl)CC(c3ccc(Cl)cc3)C1(Cl)C(Cl)=C2Cl (stereo not given)
inactive: [4] 100 % of control | [5] 95 % of control | [6] 90 % of control

Oc1ccc(C(O)(c2ccccc2)c2ccc(O)c3ccccc23)c2ccccc12
inactive: [2] 95 % of control | [3] 103 % of control | dose: 400.0 mg/kg/injection, schedule: Q01DX009 (ip), vehicle: saline with Tween-80 110 % of control
